Results taken from patent US20240000872A1, “NOVEL BACTERIOPHAGE THAT LYSES ACINETOBACTER GENUS BACTERIA HAVING RESISTANCE TO ANTIBIOTICS” (priority 2020, published 2024).

Tested on: Acinetobacter baumannii strains
Experiment: Antibiotic susceptibility test (CLSI disk diffusion test method, read per CLSI 2016); for antibiotic susceptibility S/I/R: key: ‘S’ means susceptible; ‘I’ means intermediate; ‘R’ means resistant; for antibiotic susceptibility class: key: ‘S’ means susceptible; ‘I’ means intermediate; ‘R’ means resistant; for susceptibility category (S/I/R): key: ‘S’ means susceptible; ‘I’ means intermediate; ‘R’ means resistant
Format: cell-based
Design: antibiotic susceptibility test value / susceptibility test value (number given before S/I/R) / antibiotic susceptibility value: unit not given here

In the case of ampicillin-sulbactam, the antibiotic susceptibility class (host strain YMC14/01/C29) is reported as “R”, the “antibiotic susceptibility test value” (host strain YMC14/01/C29) is reported as 32 and the antibiotic susceptibility class (host strain YMC14/01/IP122) is reported as “R”. The “antibiotic susceptibility test value” (host strain YMC14/01/IP122) was 32, the antibiotic susceptibility class (host strain YMC14/01/L8) was “R” and the “antibiotic susceptibility test value” (host strain YMC14/01/L8) was 32. For the same substance, the antibiotic susceptibility class (host strain YMC14/01/P31) was “R”, the “antibiotic susceptibility test value” (host strain YMC14/01/P31) was 32 and the antibiotic susceptibility class (host strain YMC14/01/P117) was “R”. For the same substance, the “antibiotic susceptibility test value” (host strain YMC14/01/P117) was 32, the antibiotic susceptibility class (host strain YMC14/01/P224) was “I” and the “antibiotic susceptibility test value” (host strain YMC14/01/P224) was 16. For the same substance, the antibiotic susceptibility class (host strain YMC14/01/P727) was “R”, the “antibiotic susceptibility test value” (host strain YMC14/01/P727) was 32 and the antibiotic susceptibility class (host strain YMC14/01/P728) was “I”. For the same substance, the “antibiotic susceptibility test value” (host strain YMC14/01/P728) was 16, the antibiotic susceptibility class (host strain YMC14/01/R130) was “I” and the “antibiotic susceptibility test value” (host strain YMC14/01/R130) was 16. For the same substance, the antibiotic susceptibility class (host strain YMC14/01/R160) was “R”, the “antibiotic susceptibility test value” (host strain YMC14/01/R160) was 32 and the antibiotic susceptibility class (host strain YMC14/01/R198) was “R”. The “antibiotic susceptibility test value” (host strain YMC14/01/R198) was 32, the antibiotic susceptibility class (host strain YMC14/01/R257) was “R” and the “antibiotic susceptibility test value” (host strain YMC14/01/R257) was 32. The antibiotic susceptibility class (host strain YMC14/01/R270) was “R”, the “antibiotic susceptibility test value” (host strain YMC14/01/R270) was 32 and the antibiotic susceptibility class (host strain YMC14/01/R324) was “S”. The “antibiotic susceptibility test value” (host strain YMC14/01/R324) was 8, the antibiotic susceptibility class (host strain YMC14/01/R443) was “R” and the “antibiotic susceptibility test value” (host strain YMC14/01/R443) was 32. The antibiotic susceptibility class (host strain YMC14/01/R451) was “R”, the “antibiotic susceptibility test value” (host strain YMC14/01/R451) was 32 and the antibiotic susceptibility class (host strain YMC14/01/R560) was “R”. The “antibiotic susceptibility test value” (host strain YMC14/01/R560) was 32, the antibiotic susceptibility class (host strain YMC14/01/R617) was “R” and the “antibiotic susceptibility test value” (host strain YMC14/01/R617) was 32. The antibiotic susceptibility class (host strain YMC14/01/R671) was “R”, the “antibiotic susceptibility test value” (host strain YMC14/01/R671) was 32 and the antibiotic susceptibility class (host strain YMC14/01/R732) was “R”. The “antibiotic susceptibility test value” (host strain YMC14/01/R732) was 32, the antibiotic susceptibility class (host strain YMC14/01/R767) was “I” and the “antibiotic susceptibility test value” (host strain YMC14/01/R767) was 16. The antibiotic susceptibility class (host strain YMC14/01/R904) was “R”, the “antibiotic susceptibility test value” (host strain YMC14/01/R904) was 32 and the antibiotic susceptibility class (host strain YMC14/01/R905) was “R”. For the same substance, the “antibiotic susceptibility test value” (host strain YMC14/01/R905) was 32, the antibiotic susceptibility class (host strain YMC14/01/R921) was “I” and the “antibiotic susceptibility test value” (host strain YMC14/01/R921) was 16. For the same substance, the antibiotic susceptibility class (host strain YMC14/01/R941) was “R”, the “antibiotic susceptibility test value” (host strain YMC14/01/R941) was 32 and the antibiotic susceptibility class (host strain YMC14/01/R958) was “I”. The “antibiotic susceptibility test value” (host strain YMC14/01/R958) was 16, the antibiotic susceptibility class (host strain YMC14/01/R1006) was “I” and the “antibiotic susceptibility test value” (host strain YMC14/01/R1006) was 16. The antibiotic susceptibility class (host strain YMC14/01/R1199) was “I”, the “antibiotic susceptibility test value” (host strain YMC14/01/R1199) was 16 and the antibiotic susceptibility class (host strain YMC14/01/R1659) was “I”. For the same substance, the “antibiotic susceptibility test value” (host strain YMC14/01/R1659) was 16, the antibiotic susceptibility class (host strain YMC14/01/R1722) was “I” and the “antibiotic susceptibility test value” (host strain YMC14/01/R1722) was 16. The antibiotic susceptibility class (host strain YMC14/01/R1752) was “I”, the “antibiotic susceptibility test value” (host strain YMC14/01/R1752) was 16 and the antibiotic susceptibility class (host strain YMC14/01/R2429) was “I”. For the same substance, the “antibiotic susceptibility test value” (host strain YMC14/01/R2429) was 16, the antibiotic susceptibility class (host strain YMC14/01/R2572) was “I” and the “antibiotic susceptibility test value” (host strain YMC14/01/R2572) was 16. For the same substance, the antibiotic susceptibility class (host strain YMC14/01/R2855) was “I”, the “antibiotic susceptibility test value” (host strain YMC14/01/R2855) was 16 and the antibiotic susceptibility class (host strain YMC14/01/R2945) was “S”. The “antibiotic susceptibility test value” (host strain YMC14/01/R2945) was 4, the antibiotic susceptibility class (host strain YMC14/01/R3007) was “I” and the “antibiotic susceptibility test value” (host strain YMC14/01/R3007) was 16. For the same substance, the antibiotic susceptibility class (host strain YMC14/01/R3129) was “R”, the “antibiotic susceptibility test value” (host strain YMC14/01/R3129) was 32 and the antibiotic susceptibility class (host strain YMC14/01/R3317) was “I”. The “antibiotic susceptibility test value” (host strain YMC14/01/R3317) was 16, the antibiotic susceptibility class (host strain YMC14/01/R3474) was “R” and the “antibiotic susceptibility test value” (host strain YMC14/01/R3474) was 32. For the same substance, the antibiotic susceptibility class (host strain YMC14/01/R3574) was “I”, the “antibiotic susceptibility test value” (host strain YMC14/01/R3574) was 16 and the antibiotic susceptibility class (host strain YMC14/01/U313) was “S”. For the same substance, the “antibiotic susceptibility test value” (host strain YMC14/01/U313) was 2, the antibiotic susceptibility class (host strain YMC14/01/U318) was “R” and the “antibiotic susceptibility test value” (host strain YMC14/01/U318) was 32. The antibiotic susceptibility class (host strain YMC14/02/L18) was “I”, the “antibiotic susceptibility test value” (host strain YMC14/02/L18) was 16 and the antibiotic susceptibility class (host strain YMC14/02/P47) was “R”. For the same substance, the “antibiotic susceptibility test value” (host strain YMC14/02/P47) was 32, the antibiotic susceptibility class (host strain YMC14/02/R1860) was “I” and the “antibiotic susceptibility test value” (host strain YMC14/02/R1860) was 16. The antibiotic susceptibility class (host strain YMC14/02/R2417) was “I”, the “antibiotic susceptibility test value” (host strain YMC14/02/R2417) was 16 and the antibiotic susceptibility class (host strain YMC14/02/R2599) was “R”. The “antibiotic susceptibility test value” (host strain YMC14/02/R2599) was 32, the antibiotic susceptibility class (host strain YMC14/02/R2668) was “S” and the “antibiotic susceptibility test value” (host strain YMC14/02/R2668) was 8. The antibiotic susceptibility class (host strain YMC14/02/R2758) was “S”, the “antibiotic susceptibility test value” (host strain YMC14/02/R2758) was 8 and the antibiotic susceptibility class (host strain YMC14/02/R2781) was “R”. The “antibiotic susceptibility test value” (host strain YMC14/02/R2781) was 32, the antibiotic susceptibility class (host strain YMC14/02/R3106) was “S” and the “antibiotic susceptibility test value” (host strain YMC14/02/R3106) was 8. The antibiotic susceptibility class (host strain YMC14/02/R3419) was “I”, the “antibiotic susceptibility test value” (host strain YMC14/02/R3419) was 16 and the antibiotic susceptibility class (host strain YMC14/02/U1607) was “I”. For the same substance, the “antibiotic susceptibility test value” (host strain YMC14/02/U1607) was 16, the antibiotic susceptibility class (host strain YMC14/03/L9) was “I” and the “antibiotic susceptibility test value” (host strain YMC14/03/L9) was 16. The antibiotic susceptibility class (host strain YMC14/03/P471) was “S”, the “antibiotic susceptibility test value” (host strain YMC14/03/P471) was 8 and the antibiotic susceptibility class (host strain YMC14/03/R122) was “R”. For the same substance, the “antibiotic susceptibility test value” (host strain YMC14/03/R122) was 32, the antibiotic susceptibility class (host strain YMC14/03/R217) was “I” and the “antibiotic susceptibility test value” (host strain YMC14/03/R217) was 16. The antibiotic susceptibility class (host strain YMC14/03/R380) was “S”, the “antibiotic susceptibility test value” (host strain YMC14/03/R380) was 8 and the antibiotic susceptibility class (host strain YMC14/03/R618) was “S”. For the same substance, the “antibiotic susceptibility test value” (host strain YMC14/03/R618) was 8, the antibiotic susceptibility class (host strain YMC14/03/R2144) was “I” and the “antibiotic susceptibility test value” (host strain YMC14/03/R2144) was 16. The antibiotic susceptibility class (host strain YMC14/03/U4616) was “I”, the “antibiotic susceptibility test value” (host strain YMC14/03/U4616) was 16 and the antibiotic susceptibility class (host strain YMC14/04/R1078) was “R”. The “antibiotic susceptibility test value” (host strain YMC14/04/R1078) was 32, the antibiotic susceptibility class (host strain YMC14/04/R1080) was “S” and the “antibiotic susceptibility test value” (host strain YMC14/04/R1080) was 4. The “antibiotic susceptibility S/I/R” value (host strain YMC14/06/R2359) was “S”, the antibiotic susceptibility value (host strain YMC14/06/R2359) was 8 and the “susceptibility category (S/I/R)” value (host strain YMC14/06/R2359) was “S”. For the same substance, the “susceptibility test value (number given before S/I/R)” value (host strain YMC14/06/R2359) was 8, the antibiotic susceptibility value (host strain YMC14/08/R1169) was 16 and the “susceptibility category (S/I/R)” value (host strain YMC14/08/R1169) was “I”. The “susceptibility test value (number given before S/I/R)” value (host strain YMC14/08/R1169) was 16, the “antibiotic susceptibility S/I/R” value (host strain YMC14/08/T90) was “S” and the antibiotic susceptibility value (host strain YMC14/08/T90) was 8. For the same substance, the “susceptibility category (S/I/R)” value (host strain YMC14/08/T90) was “S”, the “susceptibility test value (number given before S/I/R)” value (host strain YMC14/08/T90) was 8 and the “antibiotic susceptibility S/I/R” value (host strain YMC15/02/R436) was “R”. The antibiotic susceptibility value (host strain YMC15/02/R436) was 32, the “susceptibility category (S/I/R)” value (host strain YMC15/02/R436) was “R” and the “susceptibility test value (number given before S/I/R)” value (host strain YMC15/02/R436) was 32. For the same substance, the antibiotic susceptibility value (host strain YMC15/02/T28) was 16, the “susceptibility category (S/I/R)” value (host strain YMC15/02/T28) was “I” and the “susceptibility test value (number given before S/I/R)” value (host strain YMC15/02/T28) was 16. For the same substance, the antibiotic susceptibility value (host strain YMC15/03/R1604) was 16, the “susceptibility category (S/I/R)” value (host strain YMC15/03/R1604) was “I” and the “susceptibility test value (number given before S/I/R)” value (host strain YMC15/03/R1604) was 16. For the same substance, the antibiotic susceptibility value (host strain YMC15/09/R1869) was 16, the “susceptibility category (S/I/R)” value (host strain YMC15/09/R1869) was “I” and the “susceptibility test value (number given before S/I/R)” value (host strain YMC15/09/R1869) was 16. For the same substance, the “antibiotic susceptibility S/I/R” value (host strain YMC16/01/P11) was “R”, the antibiotic susceptibility value (host strain YMC16/01/P11) was 32 and the “susceptibility category (S/I/R)” value (host strain YMC16/01/P11) was “R”. For the same substance, the “susceptibility test value (number given before S/I/R)” value (host strain YMC16/01/P11) was 32 and the “antibiotic susceptibility S/I/R” value (host strain YMC16/01/R123) was “R”.
